Our source for the IC50 and fold induction values is patent publication EP4653437A2 (Innovo Therapeutics Inc., priority 2023, dated 2024).

One test addresses T1, human 15-PGDH (Homo sapiens, UniProt P15428).
T1 construct: purchased R&D System 5660-DH
T1 sequence (P15428 1-266): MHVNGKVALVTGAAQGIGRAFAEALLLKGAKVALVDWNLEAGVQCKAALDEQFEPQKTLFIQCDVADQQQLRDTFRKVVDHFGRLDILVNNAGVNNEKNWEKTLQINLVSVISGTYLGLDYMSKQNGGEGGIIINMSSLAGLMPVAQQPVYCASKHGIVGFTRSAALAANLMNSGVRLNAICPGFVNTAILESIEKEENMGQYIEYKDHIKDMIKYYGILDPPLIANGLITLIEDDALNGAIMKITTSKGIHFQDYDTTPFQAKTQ
Put plainly: Evaluation of 15-PGDH inhibitory activity (fluorescence enzyme assay, NAD+/PGE2). The settings on record: human 15-PGDH enzyme, fluorescence Vmax. The format is biochemical. As to the method:
15-PGDH inhibition activity of Example compounds was measured as follows. 6.7 ng of human 15-PGDH (R&D System# 5660-DH) enzyme (10 µL) was added to a black 96 well plate, 60 µL of buffer (50 mM Tris-HCl, pH 7.5, 0.01% Tween 20) was added, and 10 µL of 200 µM β-Nicotinamide adenine dinucleotide sodium salt (Sigma, Cat# N0632-5G) was added. 10 µL of (10x) compound solution in DMSO was added and reacted for 10 minutes at room temperature.

The subject of another test is A549 cells. Put plainly: Measurement of PGE2-increasing activity in A549 cells (IL-1β stimulated, PGE2 quantified in supernatant). The test is classed as cell-based. The settings on record: Homo sapiens, 24 h; concentration of 1 µM of each compound; IL-1β treated A549 cells; read-out: Increased PGE2 production in A549 cells. The method, then:
A549 cells were prepared at a cell number of 1 x 10^5/mL in F12K medium containing 10% FBS (Fetal Bovine Serum), and 2 x 10^4/200 µL was added to each well of a 96-well cell culture plate, and then cultured in an incubator with 5% CO2 at 37 °C for 24 hours. After the culture was complete and all F12K medium was removed, all wells were washed once with 100 µL of PBS, and treated with 160 µL of serum-free F12K medium. Then, 20 µL of IL-1β diluted 10-fold to a concentration of 1 ng/mL in serum-free F12K medium was treated to wells to be treated with IL-1β, and 20 µL of serum-free F12K medium was treated to wells not treated with IL-1β. For the wells to be treated with the compound, 20 µL of the compound dissolved in 100% DMSO was diluted to a concentration 10 times of the desired compound concentration in serum-free F12K medium so that the final DMSO concentration treated to the cells was 0.1%, and for the wells not to be treated with the compound, 20 µL of DMSO diluted in serum-free F12K medium so that the final DMSO concentration treated to the cells was 0.1% was treated. In order to confirm the increase or decrease in the secretion amount of PGE2 in the supernatant collected after culturing for 24 hours in an incubator with 5% CO2 at 37 °C, PGE2 was quantified using the Prostaglandin E2 Parameter (SKGE004B).

By IC50 is commonly meant the concentration at which inhibition is half-maximal. `O=C(c1cnn2c(-c3cccc(F)n3)cccc12)N1CCCCC1` [Example 271, (7-(6-fluoropyridin-2-yl)pyrazolo[1,5-a]pyridin-3-yl)(piperidin-1-yl)methanone] displayed an IC50 at human 15-PGDH of at most 100 nM. Moreover, in the test on A549 cells, the fold induction at 1 µM was above 1.5.

As for `O=C(c1cnn2c(-c3cc(F)cc(Cl)c3)cccc12)N1CCCCC1` [Example 279, (7-(3-chloro-5-fluorophenyl)pyrazolo[1,5-a]pyridin-3-yl)(piperidin-1-yl)methanone], the 50% inhibitory concentration (IC50) against human 15-PGDH is at most 100 nM. In the test with A549 cells, the fold induction at 1 µM was below 1.5.

`O=C(NCC1CC1)c1ccc(-c2cccc3c(C(=O)N4CCCCC4)cnn23)cc1` [Example 64, N-(cyclopropylmethyl)-4-(3-(piperidine-1-carbonyl)pyrazolo[1,5-a]pyridin-7-yl)benzamide]: at human 15-PGDH, the IC50 was at most 100 nM. Also, the fold induction at 1 µM in the test on A549 cells is above 1.5.

With `O=C(Nc1cccnc1)c1cncc(-c2cccc3c(C(=O)N4CCCCC4)cnn23)c1` [Example 53, 5-(3-(piperidine-1-carbonyl)pyrazolo[1,5-a]pyridin-7-yl)-N-(pyridin-3-yl)nicotinamide], the IC50 at human 15-PGDH is at most 100 nM. For the same molecule, the fold induction at 1 µM in the test on A549 cells was above 1.5.

`O=C1NCc2ccc(-c3cccc4c(C(=O)N5CCC6(CCC6)CC5)cnn34)cc21` [Example 392, 6-(3-(7-azaspiro[3.5]nonane-7-carbonyl)pyrazolo[1,5-a]pyridin-7-yl)isoindolin-1-one]: the IC50 on human 15-PGDH was at most 100 nM. Besides, in the test with A549 cells, the fold induction at 1 µM is above 1.5.

At human 15-PGDH, `O=C1NCc2ccc(-c3cccc4c(C(=O)N5CCCC(F)(F)C5)cnn34)cc21` [Example 382, 6-(3-(3,3-difluoropiperidine-1-carbonyl)pyrazolo[1,5-a]pyridin-7-yl)isoindolin-1-one] gave an IC50 of at most 100 nM. The fold induction at 1 µM in the test with A549 cells was above 1.5.

On to `Cc1nc(-c2cc(-c3cccc4c(C(=O)N5CCCCC5)cnn34)cc([N+](=O)[O-])c2)no1` [Example 330, (7-(3-(5-methyl-1,2,4-oxadiazol-3-yl)-5-nitrophenyl)pyrazolo[1,5-a]pyridin-3-yl)(piperidin-1-yl)methanone], for which the half-inhibitory concentration (IC50) against human 15-PGDH was at most 100 nM. Further, in the test with A549 cells, the fold induction at 1 µM was above 1.5.

In turn, `Cn1nc(N)c2cc(-c3cccc4c(C(=O)N5CCCCC5)cnn34)ccc21` [Example 261, [7-(3-amino-1-methyl-indazol-5-yl)pyrazolo[1,5-a]pyridin-3-yl]-(1-piperidyl)methanone] had an IC50 at human 15-PGDH of at most 100 nM. Further, the fold induction at 1 µM in the test with A549 cells was above 1.5.

On human 15-PGDH, `COc1ccc(-c2cccc3c(C(=O)N4CCCCC4)cnn23)cc1C(F)(F)F` [Example 20, (7-(4-methoxy-3-(trifluoromethyl)phenyl)pyrazolo[1,5-a]pyridin-3-yl)(piperidin-1-yl)methanone] displayed an IC50 of at most 100 nM. The fold induction at 1 µM in the test with A549 cells was above 1.5.

For the molecule `O=C1NCc2ccc(-c3cccc4c(C(=O)N5CCCC(F)C5)cnn34)cc21` (stereo not shown) [Example 378, 6-(3-(3-fluoropiperidine-1-carbonyl)pyrazolo[1,5-a]pyridin-7-yl)isoindolin-1-one], the IC50 on human 15-PGDH was at most 100 nM. Also, the fold induction at 1 µM in the test on A549 cells was above 1.5.

With `O=C(c1cnn2c(-c3ccc(N4CC(F)(F)C4)nc3)cccc12)N1CCCCC1` [Example 209, (7-(6-(3,3-difluoroazetidin-1-yl)pyridin-3-yl)pyrazolo[1,5-a]pyridin-3-yl)(piperidin-1-yl)methanone], the concentration for half-maximal inhibition (IC50) against human 15-PGDH is at most 100 nM. Also, the fold induction at 1 µM in the test with A549 cells was above 1.5.

In turn, `CN(C)c1ncc(-c2cccc3c(C(=O)N4CCCCC4)cnn23)cc1C#N` [Example 270, 2-(dimethylamino)-5-(3-(piperidine-1-carbonyl)pyrazolo[1,5-a]pyridin-7-yl)nicotinonitrile] gave an IC50 against human 15-PGDH of at most 100 nM. The fold induction at 1 µM in the test with A549 cells is above 1.5.

In turn, `CC1CCCN(C(=O)c2cnn3c(-c4ccc(N5CCOC5=O)nc4)cccc23)C1` (stereo not shown) [Example 353, 3-(5-(3-(3-methylpiperidine-1-carbonyl)pyrazolo[1,5-a]pyridin-7-yl)pyridin-2-yl)oxazolidin-2-one] showed a half-inhibitory concentration (IC50) against human 15-PGDH of at most 100 nM. Further, the fold induction at 1 µM with A549 cells is above 1.5.

For the molecule `O=C(Nc1ccncc1)c1ccc(-c2cccc3c(C(=O)N4CCCCC4)cnn23)cc1` [Example 72, 4-(3-(piperidine-1-carbonyl)pyrazolo[1,5-a]pyridin-7-yl)-N-(pyridin-4-yl)benzamide], the IC50 on human 15-PGDH was at most 100 nM. Moreover, the fold induction at 1 µM with A549 cells was above 1.5.

At human 15-PGDH, `O=C(Nc1cncc(-c2cccc3c(C(=O)N4CCCCC4)cnn23)c1)c1cncnc1` [Example 334, N-(5-(3-(piperidine-1-carbonyl)pyrazolo[1,5-a]pyridin-7-yl)pyridin-3-yl)pyrimidine-5-carboxamide] came in with an IC50 of at most 100 nM. The fold induction at 1 µM in the test with A549 cells was above 1.5.

For `CNC(=O)c1ncc(-c2cccc3c(C(=O)N4CCCCC4)cnn23)cc1F` [Example 250, 3-fluoro-N-methyl-5-[3-(piperidine-1-carbonyl)pyrazolo[1,5-a]pyridin-7-yl]pyridine-2-carboxamide], the IC50 at human 15-PGDH was at most 100 nM. The fold induction at 1 µM with A549 cells is above 1.5.

Take `O=C(O)c1ncc(-c2cccc3c(C(=O)N4CCCCC4)cnn23)cc1F` [Example 243, 3-fluoro-5-[3-(piperidine-1-carbonyl)pyrazolo[1,5-a]pyridin-7-yl]pyridine-2-carboxylic acid]: on human 15-PGDH, the IC50 was at most 100 nM. In the test with A549 cells, the fold induction at 1 µM is above 1.5.

In the case of `Cn1cnc(-c2cccc3c(C(=O)N4CCCCC4)cnn23)cc1=O` [Example 207, 3-methyl-6-(3-(piperidine-1-carbonyl)pyrazolo[1,5-a]pyridin-7-yl)pyrimidin-4(3H)-one], the IC50 on human 15-PGDH was at most 100 nM. The fold induction at 1 µM in the test on A549 cells was below 1.5.

On human 15-PGDH, `CN1CCC(C(=O)Nc2ccc(-c3cccc4c(C(=O)N5CCCCC5)cnn34)cc2)CC1` [Example 99, 1-methyl-N-(4-(3-(piperidine-1-carbonyl)pyrazolo[1,5-a]pyridin-7-yl)phenyl)piperidine-4-carboxamide] showed an IC50 of at most 100 nM. Further, the fold induction at 1 µM in the test with A549 cells is below 1.5.

On human 15-PGDH, `O=C1NCc2ccc(-c3cccc4c(C(=O)N5CCCCC5)cnn34)cc21` [Example 140, 6-(3-(piperidine-1-carbonyl)pyrazolo[1,5-a]pyridin-7-yl)isoindolin-1-one] yielded an IC50 of at most 100 nM. The fold induction at 1 µM in the test on A549 cells is above 1.5.

Molecule `O=C(c1cnn2c(-c3ccc(-c4n[nH]c(=O)o4)nc3)cccc12)N1CCCCC1` [Example 360, 5-[5-[3-(piperidine-1-carbonyl)pyrazolo[1,5-a]pyridin-7-yl]-2-pyridyl]-3H-1,3,4-oxadiazol-2-one] had a concentration for half-maximal inhibition (IC50) at human 15-PGDH of at most 100 nM. For the same molecule, in the test on A549 cells, the fold induction at 1 µM is above 1.5.

`O=C(c1cnn2c(-c3ccc4occc4c3)cccc12)N1CCCCC1` [Example 127, (7-(benzofuran-5-yl)pyrazolo[1,5-a]pyridin-3-yl)(piperidin-1-yl)methanone] showed an IC50 against human 15-PGDH of at most 100 nM. Also, the fold induction at 1 µM in the test with A549 cells is above 1.5.

Consider `CC1CCCN(C(=O)c2cnn3c(-c4ccc(F)nc4)cccc23)C1` (stereo not shown) [Example 336, (7-(6-fluoropyridin-3-yl)pyrazolo[1,5-a]pyridin-3-yl)(3-methylpiperidin-1-yl)methanone], for which the IC50 at human 15-PGDH was at most 100 nM. Besides, in the test on A549 cells, the fold induction at 1 µM was above 1.5.
